According to patent US7935819B2, “Cyclic urea derivatives, preparation thereof and pharmaceutical use thereof as kinase inhibitors” (Aventis Pharma S.A., priority 2006, dated 2011):
Read-outs that look alike come from different tables or passages of the source.

Assays:
[1] = biological target: T1, IGF-1R (human cytoplasmic domain fused with GST) (Homo sapiens, UniProt P08069); assay: Kinase IGF-1R test (Test A): inhibition of autophosphorylation of the enzyme, HTRF; format: biochemical; details: 120 μM ATP
T1 construct: The human cytoplasmic domain of IGF-1R was cloned by fusion with glutathione S-transferase (GST); made in house; host or cells: SF21 insect cells (baculovirus, pFastBac-GST)
Protocol: A) Experimental Protocol for the Kinase IGF-1R Test:
The inhibitory activity of the compounds on IGF1R is determined by measuring the inhibition of autophosphorylation of the enzyme using a time-resolved fluorescence test (HTRF). The human cytoplasmic domain of IGF-1R was cloned by fusion with glutathione S-transferase (GST) in the baculovirus expression vector pFastBac-GST. The protein is expressed in the SF21 cells and purified to about 80% homogeneity. For the enzymatic test, the test compound at 10 mM dissolved in DMSO is diluted in 1/3 steps in a 50 mM Hepes, pH 7.5, 5 mM MnCl2, 50 mM NaCl, 3% Glycerol, 0.025% Tween 20 buffer. To measure the inhibition, the successive dilutions of the compound are preincubated for 30 minutes and 90 minutes in the presence of 5 nM of enzyme, the final DMSO concentration not exceeding 1%. The enzymatic reaction is initiated to have a final ATP concentration of 120 μM, and is stopped after 5 minutes by addition of 100 mM Hepes, pH 7.0 buffer containing 0.4 M of potassium fluoride, 133 mM EDTA, 0.1% BSA, the XL665-labelled antibody anti-GST and the anti-phosphotyrosine antibody conjugated to europium cryptate Eu—K (Cis-Bio Int.). The characteristics of the two fluorophores, XL-665 and Eu—K, are available in G. Mathis et al., Anticancer Research, 1997, 17, pages 3011-3014. The energy transfer between the excited europium cryptate to the acceptor XL665 is proportional to the degree of autophosphorylation of IGF-1R. The specific long-lasting signal of XL-665 is measured in a GENios Pro TECAN plate counter. The inhibition of autophosphorylation of IGF-1R at time 30 minutes and 90 minutes with the test compounds of the invention is calculated relative to a 1% in DMSO control, whose activity is measured in the absence of compound. The curve representing the percentage of inhibition as a function of the log of the concentration is established to determine the concentration corresponding to 50% inhibition (IC50).

[2] = biological target: MEF-IGF1R cells (stable clone transfected with hIGF-1R) (Homo sapiens, UniProt P08069); assay: Proliferation/viability of MEF-IGF1R (Test C), [14C]thymidine incorporation; format: cell-based; details: rhIGF1 100 ng/mL, 72 hours, read-out: Test C IC50
Protocol: C) Measurement of the Proliferation/Viability of MEF-IGF1R
Cell culture: the MEF-IGF1R cells (stable clone of cells transfected with the receptor hIGF-1R) are cultured at 37° C. under 5% CO2 in EMEM medium containing 10% FCS.
Test procedure: the cells are seeded at 5000 cells per well in 96-well Cytostar plates (Amersham) with 0.2 mL of EMEM culture medium at 37° C. for 18 hours. The cells are then washed twice with EMEM medium and left to culture without serum for 24 hours. The compounds are then added at various concentrations in the presence of rhIGF1 (100 ng/mL) and 0.1 μCi of Thymidine [^14C] (specific activity ˜50 mCi/mmol) to give 0.2 mL of volume per well. After incubation for 72 hours in the presence of the compound, at 37° C. under 5% CO2, the incorporation of Thymidine [^14C] is measured by counting the radioactivity on a Microbeta trilux counter (Perkin-Elmer). The IC50 is determined from 10 increasing concentrations of the compound.
(§1) (i) The tests are performed in duplicate and the mean of the two tests is calculated.
(§2) (ii) The value of the signal of the maximum response is calculated from the positive control: cells stimulated with IGF1 without compound.
(§3) (iii) Value of the signal of the minimum response is calculated from the negative control: cells not stimulated with IGF1 without compound.
(§4) (iv) By using these values as maximum (100%) and minimum (0%), respectively, the data were normalized so as to give a percentage of the maximum response.
(§5) (v) A curve of dose response is plotted and the IC50 (the concentration of which the compound induces a 50% decrease in the signal) of the compound is calculated by non-linear regression analysis.

IGF1R in MCF-7 cells = biological target: T2, IGF1R in MCF-7 cells (Homo sapiens, UniProt P08069); assay: Autophosphorylation of IGF-1R in MCF7 cells after stimulation with IGF-1 (Test B), ELISA; format: cell-based; details: compound added one hour before IGF1 stimulation (10 minutes)
T2 construct: endogenous in cells; host or cells: MCF-7 cells
Protocol: B) Measurement of the Autophosphorylation of IGF-1r in MCF7 Cells after Stimulation with IGF-1
Cell Culturing and Execution of the Test:
The autophosphorylation of IGF1R in the IGF1-induced cells is evaluated by means of an ELISA technique (Enzyme Linked ImmunoSorbent Assay). The MCF-7 are seeded at 60 000 cells per well in 6-well plates and incubated at 37° C., 5% CO2 in medium containing 10% serum. After one night in 10% serum, the cells are deprived of serum for 24 hours. The compounds are added to the medium one hour before stimulation with IGF1. After 10 minutes of stimulation with IGF1, the cells are lysed with a buffer (Hepes 50 mM pH 7.6, Triton X100 1%, orthovanadate 2 mM, protease inhibitor cocktail). The cell lysates are incubated on a 96-well plate precoated with an anti-IGF1R antibody, followed by incubation with an anti-phosphotyrosine antibody coupled to the enzyme peroxidase. The level of peroxidase activity (measured by OD with a luminescent substrate) reflects the phosphorylation status of the receptor.
as §1, §2, §3, §4, §5

[3] = preincubation with enzyme 30 minutes, read-out: Test A 30′ IC50
[4] = preincubation with enzyme 90 minutes, read-out: Test A 90′ IC50

T2 sequence (P08069 31-1367): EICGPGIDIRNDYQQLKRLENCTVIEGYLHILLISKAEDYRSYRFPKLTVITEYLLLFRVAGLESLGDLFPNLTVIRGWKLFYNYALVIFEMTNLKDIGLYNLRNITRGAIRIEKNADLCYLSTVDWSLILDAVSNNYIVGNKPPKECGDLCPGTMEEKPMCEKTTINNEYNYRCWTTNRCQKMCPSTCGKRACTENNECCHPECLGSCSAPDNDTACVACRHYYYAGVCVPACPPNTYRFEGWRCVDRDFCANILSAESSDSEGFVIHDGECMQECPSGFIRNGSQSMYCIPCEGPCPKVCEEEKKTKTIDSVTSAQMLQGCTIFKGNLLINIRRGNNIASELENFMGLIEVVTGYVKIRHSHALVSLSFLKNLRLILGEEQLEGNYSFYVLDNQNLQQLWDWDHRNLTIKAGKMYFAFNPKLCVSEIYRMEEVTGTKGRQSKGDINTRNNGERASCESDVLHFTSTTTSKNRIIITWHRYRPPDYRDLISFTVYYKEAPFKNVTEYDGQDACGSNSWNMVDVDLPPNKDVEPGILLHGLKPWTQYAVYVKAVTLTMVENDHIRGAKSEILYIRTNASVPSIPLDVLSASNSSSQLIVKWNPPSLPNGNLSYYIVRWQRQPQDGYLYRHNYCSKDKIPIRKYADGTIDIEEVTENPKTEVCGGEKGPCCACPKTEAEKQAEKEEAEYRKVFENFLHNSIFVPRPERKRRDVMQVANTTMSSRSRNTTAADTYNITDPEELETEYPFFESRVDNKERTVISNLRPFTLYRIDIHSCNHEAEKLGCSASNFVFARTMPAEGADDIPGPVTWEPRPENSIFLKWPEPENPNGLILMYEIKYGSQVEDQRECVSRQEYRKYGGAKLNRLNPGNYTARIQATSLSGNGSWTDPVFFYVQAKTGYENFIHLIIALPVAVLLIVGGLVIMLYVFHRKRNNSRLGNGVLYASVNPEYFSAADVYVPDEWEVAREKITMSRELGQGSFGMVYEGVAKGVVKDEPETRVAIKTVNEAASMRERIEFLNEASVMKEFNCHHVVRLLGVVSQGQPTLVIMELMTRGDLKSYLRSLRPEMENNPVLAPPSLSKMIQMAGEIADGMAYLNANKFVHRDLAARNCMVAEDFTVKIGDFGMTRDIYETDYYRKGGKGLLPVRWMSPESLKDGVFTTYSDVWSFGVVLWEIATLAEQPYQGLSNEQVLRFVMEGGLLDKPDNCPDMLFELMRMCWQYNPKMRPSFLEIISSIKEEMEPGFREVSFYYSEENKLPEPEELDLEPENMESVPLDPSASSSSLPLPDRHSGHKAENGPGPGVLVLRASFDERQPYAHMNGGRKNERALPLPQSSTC
MEF-IGF1R cells (stable clone transfected with hIGF-1R), sequence (P08069 whole entry, change not shown): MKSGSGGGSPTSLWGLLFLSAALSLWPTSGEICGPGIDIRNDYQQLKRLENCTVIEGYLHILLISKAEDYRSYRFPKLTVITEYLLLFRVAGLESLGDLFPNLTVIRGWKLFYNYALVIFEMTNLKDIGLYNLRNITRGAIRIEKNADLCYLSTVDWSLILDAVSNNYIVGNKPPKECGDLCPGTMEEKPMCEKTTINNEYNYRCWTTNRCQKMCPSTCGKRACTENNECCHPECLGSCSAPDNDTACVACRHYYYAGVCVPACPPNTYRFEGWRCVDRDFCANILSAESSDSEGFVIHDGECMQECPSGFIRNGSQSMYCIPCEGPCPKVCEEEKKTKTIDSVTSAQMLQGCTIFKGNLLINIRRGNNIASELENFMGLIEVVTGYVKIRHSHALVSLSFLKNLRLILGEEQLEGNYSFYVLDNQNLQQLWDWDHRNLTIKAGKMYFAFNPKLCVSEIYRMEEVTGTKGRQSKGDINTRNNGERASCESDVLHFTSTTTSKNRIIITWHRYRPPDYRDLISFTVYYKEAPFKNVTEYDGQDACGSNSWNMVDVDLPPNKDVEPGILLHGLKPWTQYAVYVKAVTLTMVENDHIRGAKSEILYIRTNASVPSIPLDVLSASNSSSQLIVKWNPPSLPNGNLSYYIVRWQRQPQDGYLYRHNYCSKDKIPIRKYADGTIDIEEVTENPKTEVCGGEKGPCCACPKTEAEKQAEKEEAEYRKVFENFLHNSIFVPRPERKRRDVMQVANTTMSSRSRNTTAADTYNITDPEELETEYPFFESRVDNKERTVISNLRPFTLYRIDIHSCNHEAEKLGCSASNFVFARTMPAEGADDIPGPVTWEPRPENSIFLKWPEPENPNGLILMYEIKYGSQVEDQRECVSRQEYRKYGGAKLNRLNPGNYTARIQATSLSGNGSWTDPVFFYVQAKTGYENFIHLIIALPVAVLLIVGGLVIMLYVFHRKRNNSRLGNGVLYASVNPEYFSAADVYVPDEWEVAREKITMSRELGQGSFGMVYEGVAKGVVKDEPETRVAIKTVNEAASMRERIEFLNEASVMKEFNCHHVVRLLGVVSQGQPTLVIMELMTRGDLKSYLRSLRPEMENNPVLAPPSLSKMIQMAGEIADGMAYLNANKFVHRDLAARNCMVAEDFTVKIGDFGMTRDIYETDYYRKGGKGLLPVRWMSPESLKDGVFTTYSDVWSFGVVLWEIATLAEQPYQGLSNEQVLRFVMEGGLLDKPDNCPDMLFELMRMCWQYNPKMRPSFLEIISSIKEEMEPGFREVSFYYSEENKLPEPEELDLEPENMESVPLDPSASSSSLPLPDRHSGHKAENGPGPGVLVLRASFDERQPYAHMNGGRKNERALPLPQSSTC
T1 sequence (P08069 960-1367 limits assumed): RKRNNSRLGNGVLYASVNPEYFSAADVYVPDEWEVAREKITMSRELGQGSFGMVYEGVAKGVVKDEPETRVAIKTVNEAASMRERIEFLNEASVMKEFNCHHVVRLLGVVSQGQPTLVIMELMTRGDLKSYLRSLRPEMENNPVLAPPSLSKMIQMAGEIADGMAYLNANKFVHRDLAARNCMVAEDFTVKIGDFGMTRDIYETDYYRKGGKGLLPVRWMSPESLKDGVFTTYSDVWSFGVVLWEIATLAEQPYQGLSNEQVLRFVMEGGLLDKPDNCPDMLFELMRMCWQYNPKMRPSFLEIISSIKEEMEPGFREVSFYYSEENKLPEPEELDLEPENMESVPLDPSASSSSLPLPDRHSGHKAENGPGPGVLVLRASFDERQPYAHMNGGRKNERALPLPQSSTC

IC50 [1, 3] [nM] | IC50 [1, 4] [nM] | IC50 (IGF1R in MCF-7 cells) [nM] | Structure (SMILES) | GI50 [2] [nM]
10 to 100 | < 10 | < 10 | CC(C)(C)c1ccc(N2C(=O)N(Cc3ccnc(Nc4cccnc4)n3)C(C)(C)C2=O)cc1 [Example 1, 3-(4-tert-butylphenyl)-5,5-dimethyl-1-[2-(pyridin-3-ylamino)pyrimidin-4-ylmethyl]imidazolidine-2,4-dione] | < 10
10 to 100 | < 10 | < 10 | CC(C)(C)c1ccc(N2C(=O)N(Cc3ccnc(Nc4cncnc4)n3)C(C)(C)C2=O)cc1 [Example 8, 3-(4-tert-butylphenyl)-5,5-dimethyl-1-{[2-(pyrimidin-5-ylamino)pyrimidin-4-yl]methyl}imidazolidine-2,4-dione] | < 10
10 to 100 | < 10 |  | CC(C)(C)c1ccc(N2C(=O)N(Cc3ccnc(NC(=O)NCCCCN4CCCC4)c3)C(C)(C)C2=O)cc1 [Example 12, 1-(4-{[3-(4-tert-butylphenyl)-5,5-dimethyl-2,4-dioxoimidazolidin-1-yl]methyl}pyridin-2-yl)-3-(4-pyrrolidin-1-ylbutyl)urea] | > 100
10 to 100 | 10 to 100 | 10 to 100 | CC(C)(C)c1ccc(N2C(=O)N(Cc3ccnc(NC(=O)NC4CC4)c3)C(C)(C)C2=O)cc1 [Example 13, 1-(4-{[3-(4-tert-butylphenyl)-5,5-dimethyl-2,4-dioxoimidazolidin-1-yl]methyl}pyridin-2-yl)-3-cyclopropylurea] | 10 to 100
10 to 100 | 10 to 100 | 10 to 100 | CC(C)(C)c1ccc(N2C(=O)N(Cc3ccnc(NC(=O)NC4CCC4)c3)C(C)(C)C2=O)cc1 [Example 14, 1-(4-{[3-(4-tert-butylphenyl)-5,5-dimethyl-2,4-dioxoimidazolidin-1-yl]methyl}pyridin-2-yl)-3-cyclobutylurea] | 10 to 100
> 100 | 10 to 100 |  | CC(C)(C)c1ccc(N2C(=O)N(Cc3ccnc(NC(=O)NC4CCCCC4)c3)C(C)(C)C2=O)cc1 [Example 16, 1-(4-{[3-(4-tert-butylphenyl)-5,5-dimethyl-2,4-dioxoimidazolidin-1-yl]methyl}pyridin-2-yl)-3-cyclohexylurea] | > 100
10 to 100 | 10 to 100 | < 10 | CC(C)(C)c1ccc(N2C(=O)N(Cc3ccnc(NC(=O)N4CCC4)c3)C(C)(C)C2=O)cc1 [Example 18, N-(4-{[3-(4-tert-butylphenyl)-5,5-dimethyl-2,4-dioxoimidazolidin-1-yl]methyl}pyridin-2-yl)azetidine-1-carboxamide] | 10 to 100
10 to 100 | 10 to 100 | < 10 | CC(C)(C)c1ccc(N2C(=O)N(Cc3ccnc(NC(=O)N4CCCC4)c3)C(C)(C)C2=O)cc1 [Example 19, N-(4-{[3-(4-tert-butylphenyl)-5,5-dimethyl-2,4-dioxoimidazolidin-1-yl]methyl}pyridin-2-yl)pyrrolidine-1-carboxamide] | 10 to 100
10 to 100 | < 10 |  | CC(C)(C)c1ccc(N2C(=O)N(Cc3ccnc(NC(=O)N4CCOCC4)c3)C(C)(C)C2=O)cc1 [Example 20, N-(4-{[3-(4-tert-butylphenyl)-5,5-dimethyl-2,4-dioxoimidazolidin-1-yl]methyl}pyridin-2-yl)morpholine-4-carboxamide] | > 100
10 to 100 | 10 to 100 |  | CCCCN(C)C(=O)Nc1cc(CN2C(=O)N(c3ccc(C(C)(C)C)cc3)C(=O)C2(C)C)ccn1 [Example 27, 1-butyl-3-(4-{[3-(4-tert-butylphenyl)-5,5-dimethyl-2,4-dioxoimidazolidin-1-yl]methyl}pyridin-2-yl)-1-methylurea] | > 100
10 to 100 | 10 to 100 | 10 to 100 | CCCCNC(=O)Nc1cc(CN2C(=O)N(c3ccc(C(C)(C)C)cc3)C(=O)C2(C)C)ccn1 [Example 28, 1-butyl-3-(4-{[3-(4-tert-butylphenyl)-5,5-dimethyl-2,4-dioxoimidazolidin-1-yl]methyl}pyridin-2-yl)urea] | > 100
10 to 100 | 10 to 100 |  | CC(C)(C)c1ccc(N2C(=O)N(Cc3ccnc(Nc4cncc(F)c4)c3)C(C)(C)C2=O)cc1 [Example 31A, 3-(4-tert-butylphenyl)-1-({2-[(5-fluoropyridin-3-yl)amino]pyridin-4-yl}methyl)-5,5-dimethylimidazolidine-2,4-dione] | > 100
> 100 | 10 to 100 | 10 to 100 | CN(C)CC(=O)N1CC(C)(C)c2ccc(N3C(=O)N(Cc4ccnc(Nc5cccnc5)c4)C(C)(C)C3=O)cc21 [Example 31B, 3-[1-(N,N-dimethylglycyl)-3,3-dimethyl-2,3-dihydro-1H-indol-6-yl]-5,5-dimethyl-1-{[2-(pyridin-3-ylamino)pyridin-4-yl]methyl}imidazolidine-2,4-dione] | < 10
> 100 | > 100 | 10 to 100 | CN(C)CC(=O)N1CC(C)(C)c2ccc(N3C(=O)N(Cc4ccnc(NC(=O)N(C)C)c4)C(C)(C)C3=O)cc21 [Example 31C, 3-[4-({3-[1-(N,N-dimethylglycyl)-3,3-dimethyl-2,3-dihydro-1H-indol-6-yl]-5,5-dimethyl-2,4-dioxoimidazolidin-1-yl}methyl)pyridin-2-yl]-1,1-dimethylurea] | 10 to 100
> 100 | 10 to 100 | 10 to 100 | CC(C)NCC(=O)N1CC(C)(C)c2ccc(N3C(=O)N(Cc4ccnc(Nc5cccnc5)c4)C(C)(C)C3=O)cc21 [Example 31D, 3-[1-(N-isopropylglycyl)-3,3-dimethyl-2,3-dihydro-1H-indol-6-yl]-5,5-dimethyl-1-{[2-(pyridin-3-ylamino)pyridin-4-yl]methyl}imidazolidine-2,4-dione] | 10 to 100
> 100 | > 100 | 10 to 100 | CC(C)NCC(=O)N1CC(C)(C)c2ccc(N3C(=O)N(Cc4ccnc(NC(=O)N(C)C)c4)C(C)(C)C3=O)cc21 [Example 31E, 3-[4-({3-[1-(N-isopropylglycyl)-3,3-dimethyl-2,3-dihydro-1H-indol-6-yl]-5,5-dimethyl-2,4-dioxoimidazolidin-1-yl}methyl)pyridin-2-yl]-1,1-dimethylurea] | 10 to 100
